# From US20250114331A1, “CONCURRENT TARGETING OF ONCOGENIC PATHWAYS TO ENHANCE CHEMOTHERAPY AND IMMUNOTHERAPY” (THE JOHNS HOPKINS UNIVERSITY, priority 2021, published 2025)
# Like-named read-outs stand apart in the source and are kept apart here.
# Columns and labels:
# H1437 xenografts = assay: H1437 xenograft treatment; assay type: in vivo, NSG mice; conditions: verteporfin 50 mg/kg i.p. three times a week; S3I-201 5 mg/kg i.p. every day
# Description: For therapeutic experiments, 4- to 5-week-old NOD/SCID/IL2Ry−/− (NSG) mice were obtained from the Johns Hopkins Medical Institute's (Baltimore, MD) animal care facility. We injected H1299 cells (1×106) and H1437 cells (1×106), which were suspended in the mixture as described above, subcutaneously into both flanks. For the patient-derived xenograft (PDX) models, 13 PDX blocks (CTG0162, 0178, 0502, 0848, 1309, 1351, 1358, 1361, 1762, 1885, 2017, 2481, and 2708) were obtained from Champion Oncology. All these PDXs were established from primary lung adenocarcinoma tumors. The tumor tissues were cut into 4×2 mm pieces and implanted in the subcutaneous spaces of both flanks. When tumor volumes reached to 200+50 mm3, mice were randomly assigned to six experimental groups [control, chemo (cisplatin+gemcitabine), chemo+verteporfin, chemo+S3I-201, “all” (cisplatin+gemcitabine+verteporfin+S3I-201), and verteporfin+S3I-201] at 5 mice per group. Cisplatin (Sigma-Aldrich; #P4394), gemcitabine (Medkoo; #100410), S3I-201 (MedKoo; #202541), and verteporfin (Sigma-Aldrich; #1711461) were used to treat the mice. Cisplatin (2.5 mg/kg) and gemcitabine (120 mg/kg) were administrated via intraperitoneal injection once a week (22). […] Each tumor volume was measured every 3 days. Therapeutic efficacy was evaluated from percentage change of the tumor volume compared with the tumor size before treatment.
# [1] = system: MB 49, UPPL595 and BBN975; assay: Cell proliferation, sphere formation and RT-qPCR of CSC markers in VP treated mouse UCB cell lines; assay type: cell-based; conditions: 1 μM
# Description: Cell viability assay. Cell proliferation and viability were evaluated using alamarBlue™ Cell Viability Reagent (ThermoFischer Scientific). For cell proliferation assay, after cells (5×10^3/well) were seeded into 96-well plates with culture media containing 10% FBS, the optical density of each well was measured at desired time interval, following the manufacturers protocol. The absorbance was measured by a Spectra Max 250 Plate Reader (Molecular Devices). Cell viability were calculated as percentage over control. Sphere formation assay. Sphere formation was induced by culturing cells (2×10^4/well) in DMEM/Ham's F12 50/50 Mix (Mediatech) supplemented with B-27 (Life Technologies), 20 ng/mL FGF-basic (Peprotech), 20 ng/mL EGF (Peprotech). Cell culture was performed in ultra-low attachment 6 well plates (Corning, Lowell, USA) for 10 days. The medium was replaced every other day. Sphere formation was evaluated using the inverted phase-contrast microscope. RNA extraction and quantitative reverse transcriptase polymerase chain reaction (Q-RT-PCR). Total RNA from cell lines was isolated using the RNeasy Plus Mini Kit (Qiagen, Germantown, USA), according to the manufacturer's protocol. […] The expression levels were quantified relative to β-actin using the 2−ΔΔCt method.
# H1299 and H1437 cells = assay: qRT-PCR of YAP1 and STAT3 pathway genes after drug treatment for 72 hours; assay type: cell-based, human
# Description: qRT-PCR. The mRNA expression level of each gene was determined by qRT-PCR. […] We quantified the β-actin mRNA level to normalize the expression levels of the targeted genes. Each sample was tested in triplicate and run three times. Each graph shown in our figures indicates the average mRNA expression level of targeted genes compared with the β-actin expression level, with standard error of mean. To determine doses of these drugs that are effective for pathway inhibition, H1299 and H1437 cells were treated with verteporfin or S3I-201 for 72 hours.
# [2] = used clinically, or in clinical trials; cited from earlier work
# T24, BFTC905 and BFTC909 = assay: Lipid droplet quantification after VP, human UCB cell lines; assay type: cell-based; conditions: VP treated
# Description: YAP1 influences the accumulation of lipid droplets in cancer cells. […] Therefore, apart from investigating the altered regulation of intracellular signaling cascades, the present inventors also studied cellular metabolism in response to YAP1 modulation. […] It was reported that FABP4 is a critical molecule in accumulation of lipid droplets in the intracellular compartments (45). […] It was also observed that when the culture media was supplemented with oleic acid (commonly used as an inducer for lipid droplet formation), there is an increase accumulation of lipid droplets in the YAP1 expressing cells compared to the KD cells (FIG. 29C). […] As increased amount of L-lactate correlated with more glycolysis and poor prognosis of cancer (46), the present inventors quantified L-lactate in mouse and human UCB cells with YAP1 modulation.
# UPPL 595 cells = assay: Wound healing; assay type: cell-based, mouse; conditions: VP treated versus control cells
# colorectal cancer cells = conditions: in mice and in cells cultured under hypoxic and nutrient-deprived conditions; cited from earlier work
compound,measurement,setting,value
"C=Cc1c(C)c2cc3nc(cc4[nH]c(cc5nc(cc1[nH]2)C(C)=C5CCC(=O)O)c(CCC(=O)OC)c4C)[C@@]1(C)C3=CC=C(C(=O)OC)[C@H]1C(=O)OC [verteporfin, 3-[(23S,24R)-14-ethenyl-5-(3-methoxy-3-oxopropyl)-22,23-bis(methoxycarbonyl)-4,10,15,24-tetramethyl-25,26,27,28-tetraazahexacyclo[16.6.1.13,6.18,11.113,16.019,24]octacosa-1,3,5,7,9,11(27),12,14,16,18(25),19,21-dodecaen-9-yl]propanoic acid]",tumor growth,H1437 xenografts,did not significantly affect tumor growth
same,"cancer stemness (cell proliferation, sphere formation, CSC markers)",[1],inhibit the development of cancer stemness
same,mRNA expression of YAP1 and downstream targets CTGF and CYR61,H1299 and H1437 cells,"suppressed mRNA expressions of YAP1 and its downstream targets, such as CTGF and CYR61, in a dose-dependent manner"
same,mRNA expression of YAP1 and downstream targets CTGF and CYR61,H1299 and H1437 cells; listed as Verteporfin,"suppressed mRNA expression of YAP1, and its downstream targets, CTGF and CYR61, as the drug concentration was increased"
same,adverse effects,[2],few severe adverse effects were reported
same,accumulation of intracellular lipid droplets,"T24, BFTC905 and BFTC909",decreases the accumulation of intracellular lipid droplets
same,wound closure,UPPL 595 cells,significant difference in wound closure
same,killing of colorectal cancer cells by protein oligomer accumulation,colorectal cancer cells,selectively killed colorectal cancer cells
